In patent US8017602B2, “N-(2-(2-(5-hydroxy-3-oxo-3,4-dihydro-2H-benzo[b][1,4]oxazin-8-yl)ethylamino)ethyl)-3-(phenethoxy)propanamide derivatives, processes for their preparation, pharmaceutical compositions containing them and their use in therapy” (AstraZeneca AB, priority 2008, dated 2011):
Counter-ions that a name gives are not always drawn.

Legend:
[1] = target: T1, recombinant human α1D receptor (Homo sapiens, UniProt P25100); assay: Adrenergic α1D selectivity binding assay ([3H]-prazosin); settings: inhibition of [3H]-prazosin binding, HEK293 membranes, read-out: α1 bind pIC50 (converted)
T1 construct: expressed in transfected cells; host or cells: HEK293
T1 sequence (P25100 1-572): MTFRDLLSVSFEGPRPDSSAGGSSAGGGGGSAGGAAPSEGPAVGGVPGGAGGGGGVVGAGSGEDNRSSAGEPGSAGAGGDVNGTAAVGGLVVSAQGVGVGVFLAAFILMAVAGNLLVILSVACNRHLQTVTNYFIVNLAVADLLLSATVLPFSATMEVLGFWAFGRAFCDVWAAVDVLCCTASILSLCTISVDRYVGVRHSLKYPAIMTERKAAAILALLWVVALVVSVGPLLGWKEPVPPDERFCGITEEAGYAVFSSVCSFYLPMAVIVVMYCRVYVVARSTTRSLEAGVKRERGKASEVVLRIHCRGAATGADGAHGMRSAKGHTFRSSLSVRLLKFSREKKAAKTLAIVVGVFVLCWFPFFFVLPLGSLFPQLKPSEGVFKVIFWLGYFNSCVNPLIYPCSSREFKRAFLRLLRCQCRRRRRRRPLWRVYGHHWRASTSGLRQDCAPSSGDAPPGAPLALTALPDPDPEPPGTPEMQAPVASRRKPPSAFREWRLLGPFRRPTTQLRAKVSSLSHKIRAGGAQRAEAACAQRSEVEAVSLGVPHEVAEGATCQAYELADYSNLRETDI
Procedure: Membranes were prepared from human embryonic kidney 293 (HEK293) cells expressing recombinant human α1D receptor. These were diluted in Assay Buffer (50 mM HEPES, 1 mM EDTA, pH 7.4) to provide a final concentration of membranes that gave a clear window between maximum and minimum specific binding.
(§1) Assays were performed in U-bottomed 96-well polypropylene plates. 10 μl [^3H]-prazosin (0.3 nM final concentration) and 10 μl of test compound (10× final concentration) were added to each test well. For each assay plate 8 replicates were obtained for [^3H]-prazosin binding in the presence of 10 μl vehicle (10% (v/v) DMSO in Assay Buffer; defining maximum binding) or 10 μL BMY7378 (10 μM final concentration; defining non-specific binding (NSB)). Membranes were then added to achieve a final volume of 100 μL. The plates were incubated for 2 h at room temperature and then filtered onto PEI coated GF/B filter plates, pre-soaked for 1 h in Assay Buffer, using a 96-well plate Tomtec cell harvester. Five washes with 250 μl wash buffer (50 mM HEPES, 1 mM EDTA, pH 7.4) were performed at 4° C. to remove unbound radioactivity. The plates were dried then sealed from underneath using Packard plate sealers and MicroScint-O (50 μl) was added to each well. The plates were sealed (TopSeal A) and filter-bound radioactivity was measured with a scintillation counter (TopCount, Packard BioScience) using a 3-minute counting protocol.
(§2) Total specific binding (B0) was determined by subtracting the mean NSB from the mean maximum binding. NSB values were also subtracted from values from all other wells. […] Data was fitted to a four parameter logistic equation to determine the compound potency, which was expressed as pIC50 (negative log molar concentration inducing 50% inhibition of [^3H]-prazosin binding).

[2] = target: T2, recombinant human adrenergic beta 1 receptors (Homo sapiens, UniProt P08588); assay: Adrenergic β1 selectivity binding assay ([125I]-Iodocyanopindolol); settings: inhibition of [125I]-Iodocyanopindolol binding, human β1 membranes; read-out: β1 bind p IC50 (converted)
T2 construct: purchased Euroscreen
Procedure: (§3) Membranes containing recombinant human adrenergic beta 1 receptors were obtained from Euroscreen. These were diluted in Assay Buffer (50 mM HEPES, 1 mM EDTA, 120 mM NaCl, 0.1% gelatin, pH 7.4) to provide a final concentration of membranes that gave a clear window between maximum and minimum specific binding.
as §1, with “plates. 10 μL [^125I]-Iodocyanopindolol (0.036 nM final” for “plates. 10 μl [^3H]-prazosin (0.3 nM final”, “and 10 μL of test” for “and 10 μl of test”, “obtained for [^125I]-Iodocyanopindolol binding in” for “obtained for [^3H]-prazosin binding in”, “or 10 μl Propranolol (10 μM” for “or 10 μL BMY7378 (10 μM”, “with 250 μL wash buffer” for “with 250 μl wash buffer”, “mM EDTA, 120 mM NaCl, pH 7.4)” for “mM EDTA, pH 7.4)”
as §2, with “[^125I]-Iodocyanopindolol” for “[^3H]-prazosin”

[3] = target: T3, recombinant human Dopamine Subtype D2s receptors (Homo sapiens, UniProt P14416); assay: Dopamine D2 selectivity binding assay ([3H]-spiperone); settings: inhibition of [3H]-spiperone binding, human D2s membranes; read-out: D2 bind pIC50 (converted)
T3 construct: purchased Perkin Elmer
Procedure: as §3, with “Dopamine Subtype D2s” for “adrenergic beta 1”, “Perkin Elmer.” for “Euroscreen.”
Assays were performed in U-bottomed 96-well polypropylene plates. 30 μL [^3H]-spiperone (0.16 nM final concentration) and 30 μl of test compound (10× final concentration) were added to each test well. For each assay plate 8 replicates were obtained for [^3H]-spiperone binding in the presence of 30 μL vehicle (10% (v/v) DMSO in Assay Buffer; defining maximum binding) or 30 μl Haloperidol (10 μM final concentration; defining non-specific binding (NSB)). Membranes were then added to achieve a final volume of 300 μL. The plates were incubated for 2 h at room temperature and then filtered onto PEI coated GF/B filter plates, pre-soaked for 1 h in Assay Buffer, using a 96-well plate Tomtec cell harvester. Five washes with 250 μl wash buffer (50 mM HEPES, 1 mM EDTA, 120 mM NaCl, pH 7.4) were performed at 4° C. to remove unbound radioactivity. The plates were dried then sealed from underneath using Packard plate sealers and MicroScint-O (50 μl) was added to each well. The plates were sealed (TopSeal A) and filter-bound radioactivity was measured with a scintillation counter (TopCount, Packard BioScience) using a 3-minute counting protocol.
as §2, with “[^3H]-spiperone” for “[^3H]-prazosin”

T2 sequence (P08588 whole entry): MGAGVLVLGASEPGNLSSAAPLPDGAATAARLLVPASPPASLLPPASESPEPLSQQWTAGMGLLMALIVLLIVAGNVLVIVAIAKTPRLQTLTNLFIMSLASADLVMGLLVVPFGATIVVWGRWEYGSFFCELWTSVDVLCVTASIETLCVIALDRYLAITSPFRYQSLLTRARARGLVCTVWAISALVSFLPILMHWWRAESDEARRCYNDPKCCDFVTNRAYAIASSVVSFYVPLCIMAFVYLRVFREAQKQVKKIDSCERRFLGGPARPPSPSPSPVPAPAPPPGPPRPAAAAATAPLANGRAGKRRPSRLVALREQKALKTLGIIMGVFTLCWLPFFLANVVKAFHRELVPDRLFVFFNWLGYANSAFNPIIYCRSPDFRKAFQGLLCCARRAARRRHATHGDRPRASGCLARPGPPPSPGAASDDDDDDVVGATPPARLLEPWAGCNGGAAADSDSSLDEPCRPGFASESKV
T3 sequence (P14416 1-414 isoform P14416-2): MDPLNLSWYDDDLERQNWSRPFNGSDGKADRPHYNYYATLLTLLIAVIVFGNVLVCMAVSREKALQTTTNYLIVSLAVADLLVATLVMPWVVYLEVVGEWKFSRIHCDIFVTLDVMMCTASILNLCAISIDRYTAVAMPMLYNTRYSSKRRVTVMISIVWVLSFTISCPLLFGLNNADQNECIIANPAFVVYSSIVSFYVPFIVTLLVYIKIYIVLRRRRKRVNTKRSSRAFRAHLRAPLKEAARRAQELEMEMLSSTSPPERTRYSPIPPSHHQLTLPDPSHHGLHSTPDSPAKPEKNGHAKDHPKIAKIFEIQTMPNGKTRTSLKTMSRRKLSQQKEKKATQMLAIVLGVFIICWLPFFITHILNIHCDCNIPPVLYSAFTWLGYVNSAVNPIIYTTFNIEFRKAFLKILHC

Which IC50 [1] does the source give for `Cn1cc(-c2cccc(CCOCCC(=O)N(CCNCCc3ccc(O)c4c3OCC(=O)N4)C3CCCCC3)c2F)cn1` [Example 16, N-Cyclohexyl-3-(2-fluoro-3-(1-methyl-1H-pyrazol-4-yl)phenethoxy)-N-(2-(2-(5-hydroxy-3-oxo-3,4-dihydro-2H-benzo[b][1,4]oxazin-8-yl)ethylamino)ethyl)propanamide Trifluoroacetic Acid Salt] here?
The IC50 was 501 nM.

And the IC50 [2]?
The IC50 was 6.31 µM.

What about the IC50 [3] of the same molecule?
Its IC50 is 2000 nM.

For `Cn1cc(-c2cc(F)cc(CCOCCC(=O)N(CCNCCc3ccc(O)c4c3OCC(=O)N4)C3CCCCC3)c2)cn1` [Example 17, N-Cyclohexyl-3-(3-fluoro-5-(1-methyl-1H-pyrazol-4-yl)phenethoxy)-N-(2-(2-(5-hydroxy-3-oxo-3,4-dihydro-2H-benzo[b][1,4]oxazin-8-yl)ethylamino)ethyl)propanamide Trifluoroacetic Acid Salt], which IC50 [1] is on record?
The IC50 was 501 nM.

And the IC50 [2]?
The IC50 was 5.01 µM.

And the IC50 [3]?
The IC50 was 2510 nM.

Which results are given for `O=C1COc2c(CCNCCN(C(=O)CCOCCc3cccc(-c4cnn(CC5CC5)c4)c3)C3CCCC3)ccc(O)c2N1` [Example 19, N-Cyclopentyl-3-(3-(1-(cyclopropylmethyl)-1H-pyrazol-4-yl)phenethoxy)-N-(2-(2-(5-hydroxy-3-oxo-3,4-dihydro-2H -benzo[b][1,4]oxazin-8-yl)ethylamino)ethyl)propanamide Trifluoroacetic Acid Salt]?
IC50 [1]: 1000 nM; IC50 [2]: 3.98 µM; IC50 [3]: 2510 nM

How did the IC50 [1] turn out when `CCC[C@@H](C)N(CCNCCc1ccc(O)c2c1OCC(=O)N2)C(=O)CCOCCc1cccc(-c2cnn(C(C)C)c2)c1` [Example 21, (R)—N-(2-(2-(5-Hydroxy-3-oxo-3,4-dihydro-2H-benzo[b][1,4]oxazin-8-yl)ethylamino)ethyl)-3-(3-(1-isopropyl-1H-pyrazol-4-yl)phenethoxy)-N-(pentan-2-yl)propanamide Trifluoroacetic Acid Salt] was run?
Its IC50 is 794 nM.

What about the IC50 [2] of the same molecule?
Its IC50 is 6.31 µM.

What about the IC50 [3] of the same molecule?
The IC50 was 3160 nM.

Which results are given for `CC(C)n1cc(-c2cccc(CCOCCC(=O)N(CCNCCc3ccc(O)c4c3OCC(=O)N4)C3CCCC3)c2)cn1` [Example 22, N-Cyclopentyl-N-(2-(2-(5-hydroxy-3-oxo-3,4-dihydro-2H-benzo[b][1,4]oxazin-8-yl)ethylamino)ethyl)-3-(3-(1-isopropyl-1H-pyrazol-4-yl)phenethoxy)propanamide Trifluoroacetic Acid Salt]?
IC50 [1]: 794 nM; IC50 [2]: 5.01 µM; IC50 [3]: 2510 nM

`CCn1cc(-c2cccc(CCOCCC(=O)N(CCNCCc3ccc(O)c4c3OCC(=O)N4)C3CCCC3)c2)cn1` [Example 24, N-Cyclopentyl-3-(3-(1-ethyl-1H-pyrazol-4-yl)phenethoxy)-N-(2-(2-(5-hydroxy-3-oxo-3,4-dihydro-2H-benzo[b][1,4]oxazin-8-yl)ethylamino)ethyl)propanamide Trifluoroacetic Acid Salt] was tested. Which IC50 [1] did it give?
Its IC50 is 1260 nM.

And the IC50 [2]?
The IC50 was 5.01 µM.

What about the IC50 [3] of the same molecule?
Its IC50 is 3160 nM.

How did the IC50 [1] turn out when `CCn1cc(-c2cccc(CCOCCC(=O)N(CCNCCc3ccc(O)c4c3OCC(=O)N4)[C@H](C)C(C)(C)C)c2)cn1` [Example 25, (R)—N-(3,3-Dimethylbutan-2-yl)-3-(3-(1-ethyl-1H-pyrazol-4-yl)phenethoxy)-N-(2-(2-(5-hydroxy-3-oxo-3,4-dihydro-2H-benzo[b][1,4]oxazin-8-yl)ethylamino)ethyl)propanamide Trifluoroacetic Acid Salt] was run?
The IC50 was 316 nM.

And the IC50 [2]?
The IC50 was > 10 µM.

What about the IC50 [3] of the same molecule?
Its IC50 is 3980 nM.

What does the source list for `C[C@@H](N(CCNCCc1ccc(O)c2c1OCC(=O)N2)C(=O)CCOCCc1cccc(-c2cnn(C)c2)c1)C(C)(C)C` [Example 26, (R)—N-(3,3-Dimethylbutan-2-yl)-N-(2-(2-(5-hydroxy-3-oxo-3,4-dihydro-2H-benzo[b][1,4]oxazin-8-yl)ethylamino)ethyl)-3-(3-(1-methyl-1H-pyrazol-4-yl)phenethoxy)propanamide Trifluoroacetic Acid Salt]?
IC50 [1]: 501 nM; IC50 [2]: > 10 µM; IC50 [3]: 2510 nM

Which results are given for `Cc1nc(-c2cccc(CCOCCC(=O)N(CCNCCc3ccc(O)c4c3OCC(=O)N4)C3CCCCC3)c2)no1` [Example 27, N-Cyclohexyl-N-(2-(2-(5-hydroxy-3-oxo-3,4-dihydro-2H-benzo[b][1,4]oxazin-8-yl)ethylamino)ethyl)-3-(3-(5-methyl-1,2,4-oxadiazol-3-yl)phenethoxy)propanamide Trifluoroacetic Acid Salt]?
IC50 [1]: 1000 nM; IC50 [2]: > 10 µM; IC50 [3]: > 5010 nM

With `CCn1cc(-c2cccc(CCOCCC(=O)N(CCNCCc3ccc(O)c4c3OCC(=O)N4)C3CCCCC3)c2)cn1` [Example 28, N-Cyclohexyl-3-(3-(1-ethyl-1H-pyrazol-4-yl)phenethoxy)-N-(2-(2-(5-hydroxy-3-oxo-3,4-dihydro-2H-benzo[b][1,4]oxazin-8-yl)ethylamino)ethyl)propanamide] as the molecule, how does the IC50 [1] read?
The IC50 was 794 nM.

And the IC50 [2]?
The IC50 was > 10 µM.

What about the IC50 [3] of the same molecule?
Its IC50 is > 5010 nM.

Which IC50 [1] does the source give for `CCn1ccnc1-c1cccc(CCOCCC(=O)N(CCNCCc2ccc(O)c3c2OCC(=O)N3)C2CCCCC2)c1` [Example 29, N-Cyclohexyl-3-(3-(1-ethyl-1H-imidazol-2-yl)phenethoxy)-N-(2-(2-(5-hydroxy-3-oxo-3,4-dihydro-2H-benzo[b][1,4]oxazin-8-yl)ethylamino)ethyl)propanamide Trifluoroacetic Acid Salt] here?
Its IC50 is 1580 nM.

And the IC50 [2]?
The IC50 was > 7.94 µM.

What about the IC50 [3] of the same molecule?
The IC50 was 2000 nM.
